Data set [1] can be described thus: Oral pharmacokinetics in male BALB/c mice. In kind it is in vivo. Particulars: mouse, plasma, mean ± SD. On the procedure: Male BALB/c mice were administered a discrete, oral (PO) dose of Compound 288, Compound 335, Compound 102, or Compound 303 at 10 mg/kg; all mice were fasted except for mice that were dosed with Compound 288. Male BALB/c mice were fasted overnight and administered a cassette dose, PO dose of Compound 303 and other compounds at 5 mg/kg per compound.
Blood samples were collected serially from three animals/time-point following PO administration of the test compounds to the mice and placed in tubes containing K2EDTA. The blood samples were centrifuged, and the aliquots of the resulting plasma stored frozen at −60 to −90° C.
The plasma samples were analyzed by LC-MS/MS to determine concentrations of the test compounds. The in-life portion of the study and the bioanalysis of plasma samples was conducted at Wuxi (China).
The pharmacokinetic parameters for the tested compounds were calculated by non-compartmental analysis using Phoenix WinNonlin software.

Another data set deals with CRBN/DDB1 (Homo sapiens, UniProt Q96SW2). As to the kind of experiment: HTRF binding assay (displacement of Cy5-thalidomide probe from CRBN/DDB1). The note with it: CRBN/DDB1 2.5 nM, Cy5-Thalidomide 100 nM, 30 min; geometric mean; read-out: HTRF_Thali_Disp_DR_geo_IC50. In outline: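 HTRF displacement of Cy5-thalidomide (100 nM) from His-tagged CRBN/DDB1 (2.5 nM) with anti-His Tb cryptate in 20 mM HEPES, 20 mM NaCl, 0.2 mM TCEP, 0.2 mM EDTA, 0.005% Tween20. 10-point 1:3 series, 30 min ambient. 665/620 nm ratio fitted 4-parameter for IC50; Ki by Cheng-Prusoff from geometric-mean IC50.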
CRBN/DDB1, sequence (Q96SW2 whole entry, species assumed): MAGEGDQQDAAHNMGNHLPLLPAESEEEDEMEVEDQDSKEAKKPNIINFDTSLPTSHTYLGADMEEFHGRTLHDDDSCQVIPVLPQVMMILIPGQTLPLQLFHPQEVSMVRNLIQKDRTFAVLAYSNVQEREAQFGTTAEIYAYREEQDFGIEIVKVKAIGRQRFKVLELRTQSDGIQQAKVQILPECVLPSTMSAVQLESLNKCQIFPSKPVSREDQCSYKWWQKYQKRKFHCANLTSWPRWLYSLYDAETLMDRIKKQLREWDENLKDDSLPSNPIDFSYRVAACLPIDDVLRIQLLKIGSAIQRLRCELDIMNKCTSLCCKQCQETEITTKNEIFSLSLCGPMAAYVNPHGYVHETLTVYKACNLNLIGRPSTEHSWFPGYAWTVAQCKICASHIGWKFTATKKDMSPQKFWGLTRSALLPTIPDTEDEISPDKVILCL
CRBN/DDB1, sequence (Q16531 whole entry partner, species assumed): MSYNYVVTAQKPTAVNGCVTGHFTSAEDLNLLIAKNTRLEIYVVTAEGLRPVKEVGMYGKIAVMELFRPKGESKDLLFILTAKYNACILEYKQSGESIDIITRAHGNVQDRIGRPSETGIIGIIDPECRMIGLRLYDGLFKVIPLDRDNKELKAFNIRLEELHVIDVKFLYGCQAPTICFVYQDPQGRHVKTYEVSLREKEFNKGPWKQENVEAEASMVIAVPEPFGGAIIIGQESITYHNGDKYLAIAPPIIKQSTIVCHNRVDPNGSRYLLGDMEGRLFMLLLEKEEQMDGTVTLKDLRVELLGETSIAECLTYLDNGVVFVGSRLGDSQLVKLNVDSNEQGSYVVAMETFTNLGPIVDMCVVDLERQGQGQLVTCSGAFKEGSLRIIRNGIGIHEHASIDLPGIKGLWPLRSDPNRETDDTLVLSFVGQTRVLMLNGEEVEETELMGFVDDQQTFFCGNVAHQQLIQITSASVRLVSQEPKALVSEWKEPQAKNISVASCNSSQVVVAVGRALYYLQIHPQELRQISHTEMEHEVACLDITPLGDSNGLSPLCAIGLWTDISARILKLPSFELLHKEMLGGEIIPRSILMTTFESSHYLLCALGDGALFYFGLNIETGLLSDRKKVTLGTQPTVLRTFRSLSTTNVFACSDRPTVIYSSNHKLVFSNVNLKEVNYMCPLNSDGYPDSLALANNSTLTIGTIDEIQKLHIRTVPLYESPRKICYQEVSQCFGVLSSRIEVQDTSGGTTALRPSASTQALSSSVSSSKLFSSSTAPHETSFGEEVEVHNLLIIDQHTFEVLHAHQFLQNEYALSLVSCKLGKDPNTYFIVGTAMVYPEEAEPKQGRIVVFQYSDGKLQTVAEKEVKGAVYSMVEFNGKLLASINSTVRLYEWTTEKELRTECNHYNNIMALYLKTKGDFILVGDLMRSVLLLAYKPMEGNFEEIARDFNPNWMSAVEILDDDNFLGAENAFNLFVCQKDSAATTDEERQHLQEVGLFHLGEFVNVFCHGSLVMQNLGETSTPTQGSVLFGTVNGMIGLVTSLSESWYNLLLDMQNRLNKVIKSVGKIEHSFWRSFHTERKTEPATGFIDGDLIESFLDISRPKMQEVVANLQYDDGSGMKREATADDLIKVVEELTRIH

In the next data set the target is T1, CK1α (Homo sapiens, UniProt P48729).
T1 construct: HEK293 clonal lines with CRISPR KI HiBiT tag on CSNK1A1
T1 sequence (P48729 whole entry): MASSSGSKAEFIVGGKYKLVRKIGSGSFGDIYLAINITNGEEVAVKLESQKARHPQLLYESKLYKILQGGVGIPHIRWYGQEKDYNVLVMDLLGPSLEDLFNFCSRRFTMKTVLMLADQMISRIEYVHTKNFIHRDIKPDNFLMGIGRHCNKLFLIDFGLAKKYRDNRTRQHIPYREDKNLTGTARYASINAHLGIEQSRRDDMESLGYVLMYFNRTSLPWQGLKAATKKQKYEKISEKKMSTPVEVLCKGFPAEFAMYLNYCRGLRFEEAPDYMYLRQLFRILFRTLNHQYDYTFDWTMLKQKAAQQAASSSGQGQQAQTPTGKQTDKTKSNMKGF
T1 sequence (Q96SW2 whole entry, further chain): as the sequence (Q96SW2 whole entry, species assumed) above
T1 sequence (Q16531 2-1140 partner limits assumed): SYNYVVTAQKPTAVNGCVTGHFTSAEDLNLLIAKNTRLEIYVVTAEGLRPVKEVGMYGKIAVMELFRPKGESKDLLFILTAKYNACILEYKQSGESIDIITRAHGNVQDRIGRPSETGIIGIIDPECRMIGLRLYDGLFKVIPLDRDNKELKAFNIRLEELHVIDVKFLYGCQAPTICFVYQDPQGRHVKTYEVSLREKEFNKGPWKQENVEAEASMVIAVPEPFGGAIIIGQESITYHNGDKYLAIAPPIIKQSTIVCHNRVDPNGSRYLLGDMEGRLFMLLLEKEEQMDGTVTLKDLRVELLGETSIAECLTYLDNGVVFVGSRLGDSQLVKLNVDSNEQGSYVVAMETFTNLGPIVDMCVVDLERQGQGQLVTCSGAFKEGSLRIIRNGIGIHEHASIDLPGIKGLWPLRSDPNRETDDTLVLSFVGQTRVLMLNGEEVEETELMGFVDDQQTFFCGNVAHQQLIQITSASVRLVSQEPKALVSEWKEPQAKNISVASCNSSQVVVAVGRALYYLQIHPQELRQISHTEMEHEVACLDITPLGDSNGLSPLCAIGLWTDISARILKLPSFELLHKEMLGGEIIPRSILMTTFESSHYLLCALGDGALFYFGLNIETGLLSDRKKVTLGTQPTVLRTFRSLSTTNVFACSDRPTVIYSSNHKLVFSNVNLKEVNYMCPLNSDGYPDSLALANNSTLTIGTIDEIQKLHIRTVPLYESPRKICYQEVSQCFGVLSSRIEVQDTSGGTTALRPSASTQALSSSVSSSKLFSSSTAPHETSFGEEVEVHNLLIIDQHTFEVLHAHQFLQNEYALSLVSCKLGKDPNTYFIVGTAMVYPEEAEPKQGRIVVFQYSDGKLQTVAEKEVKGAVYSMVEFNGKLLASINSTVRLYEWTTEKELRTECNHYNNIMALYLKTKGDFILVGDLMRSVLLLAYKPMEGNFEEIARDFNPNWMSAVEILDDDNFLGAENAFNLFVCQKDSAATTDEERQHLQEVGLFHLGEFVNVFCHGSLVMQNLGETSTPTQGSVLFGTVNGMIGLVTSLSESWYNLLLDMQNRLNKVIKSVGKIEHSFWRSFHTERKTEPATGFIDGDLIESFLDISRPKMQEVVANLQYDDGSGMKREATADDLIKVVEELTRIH
In words: CK1α NanoBit Assay (HiBiT-tagged CSNK1A1, HEK293 clonal lines). Particulars: HEK293 HiBiT-CSNK1A1/LgBiT cells, 24 h incubation. In kind it is cell-based. In outline:
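HEK293 clones carrying a CRISPR knock-in HiBiT tag on CSNK1A1 and stably expressing LgBiT are treated with compound for 24 hours at 37° C, 5% CO2, then read by luminescence. Response is normalized as 100*(S−N)/(P−N) against plate negative and positive controls, and DC50 values are derived.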

The next data set relates to SKCO1 cell line. As to the kind of experiment: Growth inhibition, CyQUANT Direct Cell Proliferation Assay, SKCO1. In kind it is cell-based. The note with it: Homo sapiens, SK-CO-1; SKCO1, 120 to 168 hours; read-out: SKCO1 GI50. On the procedure: (§1) SKCO1, LS180, and LS174T cell lines were purchased from ATCC. CW2 cell line was purchased from Riken. GP2D cell line was purchased from Sigma/ECACC. All cell lines were cultured in manufacturer's recommended media at 37° C., 5% CO2. Briefly, cells were suspended in 200 μL of media and seeded at 300 to 1,800 cells per well in tissue culture treated 96-well plates with black walls and clear bottom. Plates were incubated overnight and initial (To) read was performed the following day using CyQUANT Direct Cell Proliferation Assay Kit (Thermo Fisher Scientific) according to manufacturer's protocol. All compounds were solubilized in DMSO and prepared at 3-fold serial dilution, using 9 points starting at 30 μM as highest concentration, administered to cells and incubated for 120 to 168 hours, at which point CyQUANT assay measurement was performed using Acumen Cellista instrument (Ex/Em 480/520 nm). Media-only wells were used as blank, and 0.3% DMSO was used as DMSO-treated cell control. Growth inhibition (percent response) was calculated using the following formula in Excel: “=if ([Compound treated Day N]>[Untreated Day 0, AVG], ([Compound treated Day N]−[Untreated Day 0, AVG])/([Untreated Day N]−[Untreated Day 0, AVG])*100, ([Compound Treated Day N]−[Untreated Day 0, AVG])/([Untreated Day 0, AVG])*100)”. GI50 is the response corresponding to the 50% of untreated control.
(§2) GI50 data are reported in Tables 4a, 4b, 4c, 4d, and 4e for compounds in Table 1. In Tables 4a, 4b, 4c, 4d, and 4e below, According to the code, A represents a GI50 value of ≤0.1 μM, B represents a GI50 value>0.1 μM and ≤1 μM, C represents an GI50 value>1 μM.

The subject of another data set is GP2D cell line. As to the kind of experiment: Growth inhibition, CyQUANT Direct Cell Proliferation Assay, GP2D. In kind it is cell-based. Particulars: GP2D, 120 to 168 hours; read-out: GP2D GI50. On the procedure: as §1, §2
Another data set has as its system CW2 cell line. As to the kind of experiment: Growth inhibition, CyQUANT Direct Cell Proliferation Assay, CW2. In kind it is cell-based. The note with it: Homo sapiens, CW-2; CW2, 120 to 168 hours; read-out: CW2 GI50. On the procedure: as §1, §2
Another data set relates to LS180 cell line. In words: Growth inhibition, CyQUANT Direct Cell Proliferation Assay, LS180. In kind it is cell-based. Particulars: Homo sapiens; LS180, 120 to 168 hours; read-out: LS180 GI50. As to the method: as §1, §2
For the next data set, the system named is LS174T cell line. As to the kind of experiment: Growth inhibition, CyQUANT Direct Cell Proliferation Assay, LS174T. Format: cell-based. The note with it: Homo sapiens, 120 to 168 hours, read-out: LS174T GI50. As to the method: as §1, §2

As to `COC[C@H]1Cc2c(F)cccc2N1C(=O)Nc1ccc2c(c1)CN(C1CCC(=O)NC1=O)C2=O` (stereo partly drawn) [Compound 303, (2R)—N-(2-(2,6-dioxopiperidin-3-yl)-1-oxoisoindolin-5-yl)-4-fluoro-2-(methoxymethyl)indoline-1-carboxamide], in data set [1] (PO 5 mg/kg (cassette dose)), the AUC was 12700 ± 1760 ng·h/mL, the exposure AUC(0-t) was 12300 ± 1710 ng·h/mL, the maximum concentration (Cmax) came to 7790 ± 1060 ng/mL and the Tmax came out at 30 min. In addition, the half-life in data set [1] (PO 5 mg/kg (cassette dose)) was 90.6 ± 13.2 min. On CRBN/DDB1, the IC50 was in the range of 100 to 1000 nM. The DC50 at CK1α was under 0.1 µM.
In the case of `COCC1c2ccc(C3CC3)cc2CN1C(=O)Nc1ccc2c(c1)CN(C1CCC(=O)NC1=O)C2=O` (stereo not drawn) [Compound 335, 5-cyclopropyl-N-(2-(2,6-dioxopiperidin-3-yl)-1-oxoisoindolin-5-yl)-1-(methoxymethyl)isoindoline-2-carboxamide], in data set [1] (PO 10 mg/kg), the AUC was found to be 13400 ± 696 ng·h/mL, the area under the curve AUC(0-t) was 13300 ± 694 ng·h/mL, the highest concentration (Cmax) worked out at 10600 ± 697 ng/mL and the Tmax is 15 min. In data set [1] (PO 10 mg/kg), this compound showed a half-life of 64.8 ± 2.4 min. The IC50 at CRBN/DDB1 fell in the range of 100 to 1000 nM. Also, on CK1α, the DC50 is under 0.1 µM.
Take `O=C1CCC(N2Cc3cc(NC(=O)N4CCc5cc(C6CC6)ccc54)ccc3C2=O)C(=O)N1` (stereo not drawn) [Compound 348, 5-cyclopropyl-N-(2-(2,6-dioxopiperidin-3-yl)-1-oxoisoindolin-5-yl)indoline-1-carboxamide]: the GI50 with SKCO1 cell line, in the data set on GP2D cell line, with CW2 cell line, with LS180 cell line and with LS174T cell line was under 100 nM throughout. In addition, the IC50 on CRBN/DDB1 was in the range of 100 to 1000 nM. This compound yielded a DC50 on CK1α of under 0.1 µM.
As to `C[C@H]1CN(C(=O)Nc2ccc3c(c2)CN(C2CCC(=O)NC2=O)C3=O)c2ccccc21` (stereo partly drawn) [Compound 284], the concentration for 50% growth inhibition (GI50) was under 100 nM with SKCO1 cell line; 100 to 1000 nM with GP2D cell line; under 100 nM in the data set on CW2 cell line; 100 to 1000 nM in the data set on LS180 cell line; under 100 nM in the data set with LS174T cell line. In addition, the IC50 on CRBN/DDB1 lay in the range of 100 to 1000 nM. At CK1α, this compound returned a DC50 of under 0.1 µM.
Regarding `O=C1CCC(N2Cc3cc(NC(=O)N4Cc5ccccc5C4)ccc3C2=O)C(=O)N1` (stereo not drawn) [Compound 106, N-(2-(2,6-dioxopiperidin-3-yl)-1-oxoisoindolin-5-yl)isoindoline-2-carboxamide], the GI50 was 100 to 1000 nM in the data set with SKCO1 cell line; 100 to 1000 nM with GP2D cell line; 100 to 1000 nM with CW2 cell line; over 1000 nM in the data set on LS180 cell line; over 1000 nM in the data set with LS174T cell line. The IC50 at CRBN/DDB1 was 100 to 1000 nM. For the same compound, on CK1α, the DC50 is under 0.1 µM.
Take `COC[C@H]1CN(C(=O)Nc2ccc3c(c2)CN(C2CCC(=O)NC2=O)C3=O)c2ccccc21` (stereo partly drawn) [Compound 338, (3R)—N-(2-(2,6-dioxopiperidin-3-yl)-1-oxoisoindolin-5-yl)-3-(methoxymethyl)indoline-1-carboxamide]: the GI50 in the data set on SKCO1 cell line was under 100 nM; in the data set with GP2D cell line, under 100 nM; in the data set on CW2 cell line it was 100 to 1000 nM; in the data set with LS180 cell line, under 100 nM; in the data set with LS174T cell line, under 100 nM. Also, on CRBN/DDB1, the IC50 was 100 to 1000 nM. At CK1α, this compound had a DC50 of under 0.1 µM.
